Test results: PubChem BioAssay AID2060626 (Molecular Pharmacology Branch, DTP, NCI, 2025)

Tested on: 168753-222-R-J1-PDC complex spheroid viability
Test: Anticancer human tumor 168753-222-R-J1-PDC patient-derived bladder carcinoma cell line growth inhibition [CLK]
Conditions: for IC50: curve of first compound; for viability, T/C: stronger effect = lower value
Outline: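 Multi-cell-type spheroids combined patient-derived tumor cells with HUVEC endothelial cells and human mesenchymal stem cells. Paired agents were dosed in half-log steps down from about clinical Cmax, or from 10 microM where Cmax was unknown.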

[1] = second compound 0.0316 µM, first compound 0.0316 µM
[2] = second compound 0.0316 µM, first compound 0.1 µM
[3] = second compound 0.0316 µM, first compound 0.316 µM
[4] = second compound 0.0316 µM, first compound 1 µM
[5] = second compound 0.1 µM, first compound 0.0316 µM
[6] = second compound 0.1 µM, first compound 0.1 µM
[7] = second compound 0.1 µM, first compound 0.316 µM
[8] = second compound 0.1 µM, first compound 1 µM
[9] = second compound 0.316 µM, first compound 0.0316 µM
[10] = second compound 0.316 µM, first compound 0.1 µM
[11] = second compound 0.316 µM, first compound 0.316 µM
[12] = second compound 0.316 µM, first compound 1 µM
[13] = second compound 1 µM, first compound 0.0316 µM
[14] = second compound 1 µM, first compound 0.1 µM
[15] = second compound 1 µM, first compound 0.316 µM
[16] = second compound 1 µM, first compound 1 µM
[17] = second compound 3.16 µM, first compound 0.0316 µM
[18] = second compound 3.16 µM, first compound 0.1 µM
[19] = second compound 3.16 µM, first compound 0.316 µM
[20] = second compound 3.16 µM, first compound 1 µM
[21] = second compound 10 µM, first compound 0.0316 µM
[22] = second compound 10 µM, first compound 0.1 µM
[23] = second compound 10 µM, first compound 0.316 µM
[24] = second compound 10 µM, first compound 1 µM
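Also: viability measured after seven days of drug exposure.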
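For viability, T/C in this document: luminescence signal used as surrogate for viable cell amount; 100% = DMSO vehicle control wells.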

SMILES: CC(=O)O[C@H]1C(=O)[C@@]2(C)[C@H]([C@H](OC(=O)c3ccccc3)[C@]3(O)C[C@H](OC(=O)[C@H](O)[C@@H](NC(=O)c4ccccc4)c4ccccc4)C(C)=C1C3(C)C)[C@]1(OC(C)=O)CO[C@@H]1C[C@@H]2O + CNC(=O)c1ccc(Nc2nc(OC3CCCC3)c3c(-c4ccc5nc(C)oc5c4)c[nH]c3n2)c(OC)c1
- IC50 (second compound 0.0316 µM): 130 nM
- IC50 (second compound 0.1 µM): > 10000 nM
- IC50 (second compound 0.316 µM): > 10000 nM
- IC50 (second compound 1 µM): < 31.6 nM
- IC50 (second compound 3.16 µM): < 31.6 nM
- IC50 (second compound 10 µM): < 31.6 nM
- viability, T/C [1]: 74.5%
- viability, T/C [2]: 39.9%
- viability, T/C [3]: 30.9%
- viability, T/C [4]: 33.1%
- viability, T/C (second compound 0.0316 µM, first compound 3.16 µM): 53.4%
- viability, T/C (second compound 0.0316 µM, first compound 10 µM): 53.2%
- viability, T/C [5]: 80.8%
- viability, T/C [6]: 64.2%
- viability, T/C [7]: 64.6%
- viability, T/C [8]: 67.7%
- viability, T/C (second compound 0.1 µM, first compound 3.16 µM): 86.6%
- viability, T/C (second compound 0.1 µM, first compound 10 µM): 88.2%
- viability, T/C [9]: 79.1%
- viability, T/C [10]: 80.5%
- viability, T/C [11]: 77.5%
- viability, T/C [12]: 79.9%
- viability, T/C (second compound 0.316 µM, first compound 3.16 µM): 85%
- viability, T/C (second compound 0.316 µM, first compound 10 µM): 93.9%
- viability, T/C [13]: 52.3%
- viability, T/C [14]: 34.7%
- viability, T/C [15]: 41.2%
- viability, T/C [16]: 29.4%
- viability, T/C (second compound 1 µM, first compound 3.16 µM): 52.9%
- viability, T/C (second compound 1 µM, first compound 10 µM): 62.7%
- viability, T/C [17]: 20.9%
- viability, T/C [18]: 22.2%
- viability, T/C [19]: 26.7%
- viability, T/C [20]: 31.1%
- viability, T/C (second compound 3.16 µM, first compound 3.16 µM): 29.9%
- viability, T/C (second compound 3.16 µM, first compound 10 µM): 36.4%
- viability, T/C [21]: 20.9%
- viability, T/C [22]: 18.6%
- viability, T/C [23]: 23.8%
- viability, T/C [24]: 29.1%
- viability, T/C (second compound 10 µM, first compound 3.16 µM): 35.4%
- viability, T/C (second compound 10 µM, first compound 10 µM): 31.4%

SMILES: CCc1c2c(nc3ccc(O)cc13)-c1cc3c(c(=O)n1C2)COC(=O)[C@]3(O)CC + CNC(=O)c1ccc(Nc2nc(OC3CCCC3)c3c(-c4ccc5nc(C)oc5c4)c[nH]c3n2)c(OC)c1
- IC50 (second compound 0.0316 µM): 118 nM
- IC50 (second compound 0.1 µM): 201 nM
- IC50 (second compound 0.316 µM): 51.8 nM
- IC50 (second compound 1 µM): < 3.16 nM
- IC50 (second compound 3.16 µM): < 3.16 nM
- IC50 (second compound 10 µM): < 3.16 nM
- viability, T/C (second compound 0.0316 µM, first compound 0.00316 µM): 109%
- viability, T/C (second compound 0.0316 µM, first compound 0.01 µM): 96.2%
- viability, T/C [1]: 77.2%
- viability, T/C [2]: 48.9%
- viability, T/C [3]: 35.8%
- viability, T/C [4]: 14.6%
- viability, T/C (second compound 0.1 µM, first compound 0.00316 µM): 99.1%
- viability, T/C (second compound 0.1 µM, first compound 0.01 µM): 87.4%
- viability, T/C [5]: 87.8%
- viability, T/C [6]: 50.8%
- viability, T/C [7]: 48.8%
- viability, T/C [8]: 12.8%
- viability, T/C (second compound 0.316 µM, first compound 0.00316 µM): 82.1%
- viability, T/C (second compound 0.316 µM, first compound 0.01 µM): 88.2%
- viability, T/C [9]: 62.5%
- viability, T/C [10]: 30.1%
- viability, T/C [11]: 24.6%
- viability, T/C [12]: 8.79%
- viability, T/C (second compound 1 µM, first compound 0.00316 µM): 35.1%
- viability, T/C (second compound 1 µM, first compound 0.01 µM): 29.9%
- viability, T/C [13]: 17.4%
- viability, T/C [14]: 14.1%
- viability, T/C [15]: 14.8%
- viability, T/C [16]: 11.5%
- viability, T/C (second compound 3.16 µM, first compound 0.00316 µM): 18.8%
- viability, T/C (second compound 3.16 µM, first compound 0.01 µM): 18.2%
- viability, T/C [17]: 13%
- viability, T/C [18]: 12.1%
- viability, T/C [19]: 13.3%
- viability, T/C [20]: 10.3%
- viability, T/C (second compound 10 µM, first compound 0.00316 µM): 16.9%
- viability, T/C (second compound 10 µM, first compound 0.01 µM): 15.3%
- viability, T/C [21]: 16.1%
- viability, T/C [22]: 12.6%
- viability, T/C [23]: 13.1%
- viability, T/C [24]: 7.91%
